{"source": "ChEMBL document CHEMBL3797079", "about": "“Synergistic reduction of HIV-1 infectivity by 5-azacytidine and inhibitors of ribonucleotide reductase” (Bioorg Med Chem, 2016)", "key": {"[1]": {"test_system": "Human immunodeficiency virus 1", "test": "Antiviral activity against VSV-G pseudotyped HIV-1 NL4-3 infected in human U373-MAGI cells assessed as increase in mutation frequency at 50 uM incubated for 4 hrs prior to infection measured at 72 hrs post infection by illumina sequencing method", "type": "functional"}, "[2]": {"test_system": "Human immunodeficiency virus 1", "test": "Antiviral activity against VSV-G pseudotyped HIV-1 NL4-3 infected in human U373-MAGI cells assessed as reduction in viral infectivity preincubated for 2 to 8 hrs followed by viral infection measured at 72 hrs post infection by flow cytometric analysis", "type": "functional, organism-based"}, "[3]": {"test_system": "Human immunodeficiency virus 1", "test": "Antiviral activity against VSV-G pseudotyped HIV-1 NL4-3 infected in human U373-MAGI cells assessed as Gag mutation at 50 uM incubated for 4 hrs prior to infection measured at 72 hrs post infection by illumina sequencing method (reference value: 18.4%)", "type": "functional"}, "[4]": {"test_system": "Human immunodeficiency virus 1", "test": "Antiviral activity against VSV-G pseudotyped HIV-1 NL4-3 infected in human U373-MAGI cells assessed as reduction in gag level at 50 uM measured at 12 to 72 hrs post infection by qPCR method", "type": "functional, organism-based"}, "[5]": {"test_system": "Human immunodeficiency virus 1", "test": "Antiviral activity against VSV-G pseudotyped HIV-1 NL4-3 infected in human U373-MAGI cells assessed as Env mutation at 50 uM incubated for 4 hrs prior to infection measured at 72 hrs post infection by illumina sequencing method (reference value: 21.4%)", "type": "functional"}, "[6]": {"test": "Reduction in dATP level in human U373-MAGI cells at 50 uM after 6 hrs by LC-MS/MS analysis", "type": "functional", "set-up": "scale not given: the % may be the effect or the level left"}, "[7]": {"test_system": "U373-MAGI", "test": "Effect on dRGU-TP level in human U373-MAGI cells at 50 uM preincubated for 2 hrs followed by 5-aza-dC addition measured after 4 hrs by LC-MS/MS analysis", "type": "functional, cell-based"}, "[8]": {"test_system": "Human immunodeficiency virus 1", "test": "Potentiation of 5-Aza-C-induced antiviral activity against VSV-G pseudotyped HIV-1 NL4-3 infected in human U373-MAGI cells assessed as Vif mutation at 50 uM incubated for 4 hrs preinfection followed by 5-Aza-C addition for 2 hrs preinfection and subsequent viral infection measured at 72 hrs post infection by illumina sequencing method (reference value: 19.2%)", "type": "functional"}, "[9]": {"test_system": "Human immunodeficiency virus 1", "test": "Potentiation of 5-Aza-C-induced antiviral activity against VSV-G pseudotyped HIV-1 NL4-3 infected in human U373-MAGI cells assessed as Env mutation at 50 uM incubated for 4 hrs preinfection followed by 5-Aza-C addition for 2 hrs preinfection and subsequent viral infection measured at 72 hrs post infection by illumina sequencing method (reference value: 21.4%)", "type": "functional"}, "[10]": {"test_system": "Human immunodeficiency virus 1", "test": "Potentiation of 5-Aza-C-induced antiviral activity against VSV-G pseudotyped HIV-1 NL4-3 infected in human U373-MAGI cells assessed as reduction in viral infectivity at 50 uM preincubated for 2 to 8 hrs followed by 5-Aza-C addition for 2 hrs and subsequent viral infection measured at 72 hrs post infection by flow cytometric analysis", "type": "functional, organism-based"}, "[11]": {"test_system": "Human immunodeficiency virus 1", "test": "Antiviral activity against VSV-G pseudotyped HIV-1 NL4-3 infected in human U373-MAGI cells assessed as increase in frequency of C to A transversion at 50 uM incubated for 4 hrs prior to infection measured at 72 hrs post infection by illumina sequencing method relative to control", "type": "functional"}, "[12]": {"test_system": "U373-MAGI", "test": "Reduction in dGTP level in human U373-MAGI cells at 200 uM after 6 hrs by LC-MS/MS analysis", "type": "functional, cell-based"}, "[13]": {"test_system": "Human immunodeficiency virus 1", "test": "Potentiation of 5-Aza-dC-induced antiviral activity against VSV-G pseudotyped HIV-1 NL4-3 infected in human U373-MAGI cells assessed as reduction in viral infectivity at 25 uM preincubated for 2 hrs followed by 5-Aza-dC addition for 2 hrs and subsequent viral infection measured at 72 hrs post infection by flow cytometric analysis", "type": "functional, organism-based"}, "[14]": {"test_system": "U373-MAGI", "test": "Reduction in dRGU-TP level in human U373-MAGI cells at 50 uM preincubated for 2 hrs followed by 5-aza-C addition measured after 4 hrs by LC-MS/MS analysis", "type": "functional, cell-based"}, "[15]": {"test_system": "Human immunodeficiency virus 1", "test": "Antiviral activity against VSV-G pseudotyped HIV-1 NL4-3 infected in human U373-MAGI cells assessed as reduction in U5-gag level at 50 uM measured at 12 to 72 hrs post infection by qPCR method", "type": "functional, organism-based"}, "[16]": {"test_system": "Human immunodeficiency virus 1", "test": "Potentiation of 5-Aza-dC-induced antiviral activity against VSV-G pseudotyped HIV-1 NL4-3 infected in human U373-MAGI cells assessed as Pol mutation at 50 uM incubated for 4 hrs preinfection followed by 5-Aza-C addition for 2 hrs preinfection and subsequent viral infection measured at 72 hrs post infection by illumina sequencing method (reference value: 18.5%)", "type": "functional"}, "[17]": {"test_system": "Human immunodeficiency virus 1", "test": "Potentiation of 5-Aza-dC-induced antiviral activity against VSV-G pseudotyped HIV-1 NL4-3 infected in human U373-MAGI cells assessed as Gag mutation at 50 uM incubated for 4 hrs preinfection followed by 5-Aza-C addition for 2 hrs preinfection and subsequent viral infection measured at 72 hrs post infection by illumina sequencing method (reference value: 18.4%)", "type": "functional"}, "[18]": {"test_system": "Human immunodeficiency virus 1", "test": "Antiviral activity against VSV-G pseudotyped HIV-1 NL4-3 infected in human U373-MAGI cells assessed as increase in frequency of […] transversion at 50 uM incubated for 4 hrs prior to infection measured at 72 hrs post infection by illumina sequencing method relative to control", "type": "functional"}, "[19]": {"test_system": "Human immunodeficiency virus 1", "test": "Antiviral activity against VSV-G pseudotyped HIV-1 NL4-3 infected in human U373-MAGI cells assessed as Nef mutation at 50 uM incubated for 4 hrs prior to infection measured at 72 hrs post infection by illumina sequencing method (reference value: 22.6%)", "type": "functional"}, "[20]": {"test_system": "U373-MAGI", "test": "Increase in 5-aza-dCTP/dCTP ratio in human U373-MAGI cells at 50 uM preincubated for 2 hrs followed by 5-aza-C addition measured after 4 hrs by LC-MS/MS analysis relative to 5-aza-C", "type": "functional, cell-based"}, "[21]": {"test_system": "U373-MAGI", "test": "Reduction in dCTP level in human U373-MAGI cells at 200 uM after 6 hrs by LC-MS/MS analysis", "type": "functional, cell-based"}, "[22]": {"test_system": "Human immunodeficiency virus 1", "test": "Antiviral activity against VSV-G pseudotyped HIV-1 NL4-3 infected in human U373-MAGI cells assessed as increase in frequency of A to C transversion at 50 uM incubated for 4 hrs prior to infection measured at 72 hrs post infection by illumina sequencing method relative to control", "type": "functional"}, "[23]": {"test_system": "U373-MAGI", "test": "Reduction in dRGU-TP level in human U373-MAGI cells at 200 uM preincubated for 2 hrs followed by 5-aza-C addition measured after 4 hrs by LC-MS/MS analysis", "type": "functional, cell-based"}, "[24]": {"test_system": "U373-MAGI", "test": "Effect on 5-aza-dCTP level in human U373-MAGI cells at 200 uM preincubated for 2 hrs followed by 5-aza-dC addition measured after 4 hrs by LC-MS/MS analysis", "type": "functional, cell-based"}, "[25]": {"test_system": "U373-MAGI", "test": "Reduction in 5-aza-dCTP level in human U373-MAGI cells at 50 uM preincubated for 2 hrs followed by 5-aza-C addition measured after 4 hrs by LC-MS/MS analysis", "type": "functional, cell-based"}, "[26]": {"test_system": "U373-MAGI", "test": "Reduction in dCTP level in human U373-MAGI cells at 50 uM preincubated for 2 hrs followed by 5-aza-C addition measured after 4 hrs by LC-MS/MS analysis", "type": "functional, cell-based"}, "[27]": {"test_system": "U373-MAGI", "test": "Reduction in dGTP level in human U373-MAGI cells at 50 uM after 6 hrs by LC-MS/MS analysis", "type": "functional, cell-based"}}, "note": "Calls of active or inactive are those of the source. The calls are words filed in the database; no cut-off is given here.", "data": [{"smiles": "Oc1ccc(/C=C/c2cc(O)cc(O)c2)cc1", "note": "[RESVERATROL]", "values": [{"measurement": "fold change (FC)", "setting": "[1]", "result": 1.5}, {"measurement": "Activity", "setting": "[2]", "result": "Active"}, {"measurement": "Activity", "setting": "[3]", "result": 16.6, "unit": "%"}, {"measurement": "Activity", "setting": "[4]", "result": "inactive"}, {"measurement": "Activity", "setting": "[5]", "result": 22.5, "unit": "%"}, {"measurement": "Activity", "setting": "[6]", "result": 30, "unit": "%"}, {"measurement": "Activity", "setting": "[7]", "result": "inactive"}, {"measurement": "Activity", "setting": "[8]", "result": 22.6, "unit": "%"}, {"measurement": "Activity", "setting": "[9]", "result": 22.8, "unit": "%"}, {"measurement": "Activity", "setting": "[10]", "result": "Active"}, {"measurement": "fold change (FC)", "setting": "[11]", "result": 1.3}, {"measurement": "Activity", "setting": "[12]", "result": "Active"}, {"measurement": "Activity", "setting": "[13]", "result": "Active"}, {"measurement": "Activity", "setting": "[14]", "result": "inactive"}, {"measurement": "Activity", "setting": "[15]", "result": "inactive"}, {"measurement": "Activity", "setting": "[16]", "result": 18.9, "unit": "%"}, {"measurement": "Activity", "setting": "[17]", "result": 15.7, "unit": "%"}, {"measurement": "fold change (FC)", "setting": "[18]", "result": 2}, {"measurement": "Activity", "setting": "[19]", "result": 18.5, "unit": "%"}, {"measurement": "Activity", "setting": "[20]", "result": "Active"}, {"measurement": "Activity", "setting": "[21]", "result": "Active"}, {"measurement": "fold change (FC)", "setting": "[22]", "result": 1.8}, {"measurement": "Activity", "setting": "[23]", "result": "Active"}, {"measurement": "Activity", "setting": "[24]", "result": "inactive"}, {"measurement": "Activity", "setting": "[25]", "result": "inactive"}, {"measurement": "Activity", "setting": "[26]", "result": "Active"}, {"measurement": "Activity", "setting": "[27]", "result": "inactive"}]}]}
